# pIC50: −log10 of the molar value. Like-named read-outs stand apart in the source and are kept apart here.
# Legend:
# Type in all cases: cell-based, mouse
# [1] = system: FAD-PSEN1 mutants; experiment: Late endosomal localisation of FAD-PSEN1 mutants in PSEN1 KO MEFs; settings: DAPT 1 μM 16 h
# Procedure: FIG. 6. Familial Alzheimer's disease (FAD) mutations in PSEN1 differently affect g-secretase localization in late endosomes. Ratio of GFP intensity in LAMP1 endosomes over total GFP signal in PSEN1 KO MEFs stably rescued with GFP-PSEN1 wild-type (Wt) or the indicated FAD-PSEN1 mutants and treated with DMSO or DAPT (1 μM) 16 h.
# As these mutations were reported to have an early onset and high thermo-instability (reflecting lowest processivity), we extended this experiment to other mutations reported in Szaruga et al (2017 Cell 170). In line with the above, the PSEN1-P88L mutation translocated PSEN1/g-secretase to late endosomes as well. […] These mutations have a higher onset and affect the Ab processivity less as compared to L166P, G384A and P88L mutants.
# [2] = biological target: T1, PSEN1/g-secretase complex (Homo sapiens, UniProt P49768); experiment: Relocation of GFP-PSEN1/g-secretase to LAMP1-positive late endosomes (confocal immunofluorescence)
# T1 construct: expressed in transfected cells
# Procedure: (§1) We now questioned whether g-secretase inhibitors would affect subcellular distribution of g-secretase complexes as well. We made use of mouse embryonic fibroblasts (MEFs) in which both PSEN1 an PSEN2 are knocked-out (dKO), rescued with either EGFP-PSEN1 or EGFP-PSEN2 (FIG. 1A). […] The dKO MEFs were then incubated overnight with N—[N-(3,5-difluorophenacetyl)-L-alanyl]-S-phenylglycine t-butyl ester (DAPT). DAPT is a non-transition state analogue (TSA) g-secretase inhibitor that is widely used (Dovey et al 2001 J Neurochem 76).
# All culture media and sera are from ThermoFisher Scientific. Mouse embryonic fibroblasts (MEFs), PSEN1 knock-out (1 ko), PSEN1 and PSEN2 double knock-out (dKO, Herreman et al 2000 Nat Cell Biol 2), rescued 1 ko and dKO cell lines cells were routinely grown in Dulbecco's modified Eagle's medium (DMEM/F12) supplemented with 10% fetal calf serum (FCS). All cell lines were maintained in a humidified chamber with 5% CO2 at 37° C. Primary hippocampal neuron cultures are derived from E18 rat embryos (Esselens et al 2004 J Cell Biol 166). Stable rescued 1 ko and dKO cell lines were generated using replication-defective recombinant retroviral system (pMCSV vector, Clontech) expressing the gene of interest.
# Cells were plated on glass coverslips, transfected 24 h later and processed for indirect immunolabeling the next day (Sannerud et al 2011 Proc Natl Acad Sci USA 108). Images were captured on a confocal microscope (Leica TCS SP5 II, Leica Microsystems) connected to an upright microscope, using an oil-immersion plan Apo 60× A/1.40 NA objective lens. Image acquisition was performed with LAS (Leica Microsystems). Images were further processed with ImageJ and PhotoshopCS6 (Adobe, Calif.). ImageJ software with the plugin JACoP (Bolte and Cordelieres 2006 J Microsc 224) was used for signal overlap quantification (Mander's coefficient). Images were acquired with identical settings and regions of interest (ROI) covering whole cells were used for quantification.
# [3] = biological target: T2, PSEN2/g-secretase (Homo sapiens, UniProt P49810); experiment: Localisation of GFP-PSEN2/g-secretase in LAMP1-positive organelles (confocal); settings: 1 μM, 16 hrs; dKO MEFs rescued with EGFP-PSEN2
# T2 construct: expressed in transfected cells
# Procedure: as §1
# All culture media and sera are from ThermoFisher Scientific. Mouse embryonic fibroblasts (MEFs), PSEN1 knock-out (1 ko), PSEN1 and PSEN2 double knock-out (dKO, Herreman et al 2000 Nat Cell Biol 2), rescued 1 ko and dKO cell lines cells were routinely grown in Dulbecco's modified Eagle's medium (DMEM/F12) supplemented with 10% fetal calf serum (FCS). All cell lines were maintained in a humidified chamber with 5% CO2 at 37° C. […]
# Cells were plated on glass coverslips, transfected 24 h later and processed for indirect immunolabeling the next day (Sannerud et al 2011 Proc Natl Acad Sci USA 108). […] ImageJ software with the plugin JACoP (Bolte and Cordelieres 2006 J Microsc 224) was used for signal overlap quantification (Mander's coefficient). Images were acquired with identical settings and regions of interest (ROI) covering whole cells were used for quantification.
# [4] = biological target: PSEN1/g-secretase (Homo sapiens, UniProt P49768); experiment: Ab production in MEFs transfected with C99-3×FLAG (Western blot 82E1); parameters: expressed in transfected cells; settings: 16 hours
# Procedure: FIG. 5. Inhibitor dose-effect on Ab production. PSEN1 KO MEFs stably rescued with GFP-PSEN1 and transfected with C99-3×FLAG (6 h) were treated with different concentrations of (A, B) DAPT, or (C) L-685-458 as indicated. After 16 h, condition media and cell lysates were analyzed by Western blot using 82E1 monoclonal antibody to detect AP. Representative blot is shown in […] for DAPT treatment and quantification is shown in (B): mean+SEM, n=3 independent experiments. (C) PSEN1 KO MEFs. Quantification for L-685-458 is shown in (C), n=1.
# Based on these new data, it is crucial to compare the sensitivity to g-secretase inhibitors of the g-secretase complex located in the late endosomes (producing intracellular Ab) and the broadly localised g-secretase complex (producing extracellular Ab). We therefore compared the dose-dependencies of translocated PSEN1/g-secretase with catalytic inhibition by DAPT. MEFs were transfected with APP-C99-3×FLAG for 6 hours and treated with different doses of DAPT. After 16 hours, conditioned media and cell lysates were collected and analysed by Western blotting for total secreted and intracellular Ab, respectively. This resulted for DAPT in a lower IC50 for secreted Ab inhibition (FIG. 5A-B).
# (§2) Protein concentrations were determined by the Bio-Rad DC protein assay (Bio-Rad). Samples were separated by SDS-PAGE (4-12% Bis-Tris NuPAGE gels in MES running buffer (ThermoFisher Scientific) and transferred onto nitrocellulose membranes (ThermoFisher Scientific). After blocking in 5% non-fat milk, membranes were incubated with primary antibody (4° C., overnight) followed by washing and incubation with horseradish peroxidase (HRP)-conjugated secondary antibodies (1 h, room temperature). After final washing, immunodetection was done using enhanced chemiluminescence (Western Lightning-Plus ECL, PerkinElmer), and immunoreactive protein bands were digitally captured and quantified on a Fuji MiniLAS 3000 imager (Fuji, Dusseldorf, Germany) using Aida Image Analyzer software (Raytest, Germany). Data are represented as mean±SEM of at least three independent experiments.
# [5] = biological target: T3, g-secretase complex (Homo sapiens, UniProt P49768); experiment: Cadherin CTF and APP CTF accumulation (Western blot); settings: FIG. 7 Western blot
# T3 construct: expressed in transfected cells
# Procedure: Second, of all these compounds, the inhibitory action on g-secretase activity was determined by quantifying the production of the C-terminal fragments (CTF) of Cadherin and APP. Both Cadherin-CTF and APP-CTF accumulate when the enzymatic activity of the g-secretase complex is inhibited. As can be appreciated from the Western blot in FIG. 7, all tested g-secretase inhibitors (C1, C2, C4 and C8) induced the level of Cadherin CTF and APP CTF in contrast to the negative control and the g-secretase stabilizers.
# as §2
structure (smiles),measurement,setting,value
"C[C@H](NC(=O)Cc1cc(F)cc(F)c1)C(=O)N[C@H](C(=O)OC(C)(C)C)c1ccccc1 [DAPT, N—[N-(3,5-difluorophenacetyl)-L-alanyl]-S-phenylglycine t-butyl ester]",late endosomal localization of mutant PSEN1,"[1]; L166P, G384A, P88L mutants",did not further increase late endosomal localization
same,shift of PSEN1/g-secretase to late endosomes,[1]; Y115H and E280A mutants,"did not shift PSEN1/g-secretase to late endosomes, unless treated with DAPT"
same,"EGFP-PSEN1 in LAMP1-positive organelles, Mander's coefficient","[2]; 1 μM, 16 hrs, PSEN1/PSEN2 dKO MEFs rescued with EGFP-PSEN1",threefold increase
same,increase in ratio of EGFP-PSEN1 fluorescence within LAMP1-positive compartments over total EGFP-PSEN1,"[2]; 1 μM, 16 hrs, dKO MEFs rescued with EGFP-PSEN1",50%
same,translocation of the PSEN1/g-secretase complex to the late endosomes (Rel MFI),"[2]; 1 μM, FIG. 8",induce a translocation of the PSEN1/g-secretase complex to the late endosomes
same,reversibility of late endosomal relocation after wash-out,"[2]; DAPT-containing medium replaced with fresh medium, 16 hrs",fully reversible
same,dose dependence of PSEN1/g-secretase relocation,[2]; between 1 and 1000 nM,clear dose response
same,fold increase by which PSEN1/g-secretase relocates,"[2]; dose response, normalised to DMSO",almost two-fold
same,"EGFP-PSEN2 in LAMP1-positive organelles, Mander's coefficient",[3],no additional effect
same,ratio of EGFP-PSEN2 fluorescence within LAMP1-positive compartments over total,[3],remained unaltered
same,pIC50,"[4]; cell lysates, read-out: IC50 intracellular Ab",7.68
same,pIC50,"[4]; conditioned media, read-out: IC50 for secreted Ab inhibition",7.80
same,level of APP CTF,[5],accumulate
same,level of Cadherin CTF,[5],accumulate

# Reference: patent US20220397566A1, “GAMMA-SECRETASE STABILIZING COMPOUND SCREENING ASSAY” (VIB VZW, priority 2019, published 2022)
